In patent publication US20100256040A1 (priority 2001, published 2010):
Where two headings read alike, the source gives them in different places. Where a SMILES comes first, the peptide text is derived from it. Where no end group is shown, it is not given here.

What was measured:
[1] = Cytotoxicity measurement by MTS staining in PBMC cultures; assay type: cell-based; conditions: human
Method: At assay termination the assay plates were stained with the soluble tetrazolium-based dye MTS (CellTiter Reagent, Promega) to determine cell viability and quantify compound toxicity. MTS is metabolized by the mitochondria enzymes of metabolically active cells to yield a soluble formazan product, allowing the rapid quantitative analysis cell viability and compound cytotoxicity. […] At termination of the assay, 20 μl of MTS reagent was added per well. The wells were incubated overnight for the HIV cytoprotection assay at 37° C. The incubation intervals were chosen based on empirically determined times for optimal dye reduction in each cell type. Adhesive plate sealers were used in place of the lids, the sealed plate was inverted several times to mix the soluble formazan product and the plate was read spectrophotometrically at 490 nm with a Molecular Devices Vmax plate reader.

[2] = tested on: HIV-1; assay: microbe, parasite or virus in culture
Method: Fresh human blood was obtained commercially from Interstate Blood Bank, Inc. (Memphis, Tenn.). The lymphotropic clinical isolate HIV-1ROJO was obtained from a pediatric patient attending the AIDS Clinic at the University of Alabama at Birmingham. The laboratory-adapted HIV-1IIIB strain was propagated and tittered in fresh human PBMCs; pre-titered aliquots of HIV-1ROJO and Hiv-1IIIB were removed from the freezer (−80° C.) and thawed rapidly to room temperature in a biological safety cabinet immediately before use. Phytohemagglutinin (PHA-P) was obtained from Sigma (St. Louis, Mo.) and recombinant IL-2 was obtained from Amgen (San Francisco, Calif.).
Fresh human PBMCs were isolated from screened donors, seronegative for HIV and HBV. Leukophoresed blood was diluted 1:1 with Dulbecco's phosphate buffered saline (PBS), layered over 14 mL of Ficoll-Hypaque density gradient in a 50 mL centrifuge tube and then centrifuged for 30 minutes at 600×g. Banded PBMCs were aspirated from the resulting interface and subsequently washed 2× with PBS by low speed centrifugation. After the final wash, cells were enumerated by trypan blue exclusion and re-suspended at 1×10^7 cells/mL in RPMI 1640 supplemented with 15% Fetal Bovine Serum (FBS), 2 mM L-glutamine, 4 μg/mL PHA-P. The cells were allowed to incubate for 48-72 hours at 37° C. After incubation, PBMCs were centrifuged and reset in RPMI 1640 with 15% FBS, 2 mM L-glutamine, 100 U/ml penicillin, 100 μg/mL streptomycin, 10 μg/mL gentamycin, and 20 U/mL recombinant human IL-2. PBMCs were maintained in this medium at a concentration of 1-2×10^6 cells/mL with biweekly medium changes until used in the assay protocol.
For the standard PBMC assay, PHA-P stimulated cells from at least two normal donors were pooled, diluted in fresh medium to a final concentration of 1×10^6 cells/mL, and plated in the interior wells of 96 well round bottom microplate at 50 μL/well (5×10^4 cells/well). Test drug dilutions were prepared at a 2× concentration in microtiter tubes and 100 μL of each concentration was placed in appropriate wells in a standard format. 50 μl, of a predetermined dilution of virus stock was placed in each test well (final MOI≈0.1). Wells with cells and virus alone were used for virus control. Separate plates were prepared identically without virus for drug cytotoxicity studies using an XTT assay system. The PBMC cultures were maintained for seven days following infection, at which time cell-free supernate samples were collected and assayed for reverse transcriptase activity as described below.
A microtiter based reverse transcriptase (RT) reaction was utilized. See Buckheit et al., AIDS Research and Human Retroviruses 7:295-302 (1991). Tritiated thymidine triphosphate (NEN) (TTP) was resuspended in distilled H2O at 5 Ci/ml. Poly rA and oligo dT were prepared as a stock solution which was kept at −20° C. The RT reaction buffer was prepared fresh on a daily basis and consists of 125 μl 1M EGTA, 125 μl dH2O, 110 μl 10% SDS, 50 μl 1M Tris (pH 7.4), 50 μl 1M DTT, and 40 μl 1M MgCL2. These three solutions were mixed together in a ratio of 2 parts TTP, 1 part poly rA:oligo dT, and 1 part reaction buffer. Ten microliters of this reactions mixture was placed at a round bottom microtiter plate and 15 μl of virus containing supernatant was added and mixed. The plate was incubated at 37° C. in a water bath with a solid support to prevent submersion of the plate and incubated for 60 minutes. Following reaction, the reaction volume was spotted onto pieces of DE81 paper, washed 5 times 5 minutes each in a 5% sodium phosphate buffer, 2 times 1 minute each in distilled water, 2 times for 1 minute each in 70% ethanol, and then dried. Opti-Fluor-O (Packard) was added to each sample and incorporated radioactivity was quantified utilizing a Wallac 1450 MicroBeta Plus liquid scintillation counter.

[3] = molecular target: T1, Full length Tsg101 (Homo sapiens, UniProt Q99816); assay: Yeast two-hybrid liquid culture β-galactosidase assay; assay type: binding; conditions: p6 point mutants
T1 construct: expressed in transfected cells
T1 sequence (Q99816 1-390): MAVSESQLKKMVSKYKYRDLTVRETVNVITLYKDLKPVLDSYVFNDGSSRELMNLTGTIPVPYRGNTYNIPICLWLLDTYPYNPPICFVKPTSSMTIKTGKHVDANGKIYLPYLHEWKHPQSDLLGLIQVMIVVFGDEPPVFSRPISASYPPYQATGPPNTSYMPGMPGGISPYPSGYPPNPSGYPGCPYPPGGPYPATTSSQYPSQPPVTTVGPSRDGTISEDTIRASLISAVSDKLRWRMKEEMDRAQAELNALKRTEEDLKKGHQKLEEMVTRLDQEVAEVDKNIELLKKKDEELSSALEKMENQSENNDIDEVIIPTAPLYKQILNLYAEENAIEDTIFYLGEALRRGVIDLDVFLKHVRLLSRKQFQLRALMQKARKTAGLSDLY
Method: The interactions between TSG101 and wild-type p6gag (WT) or the p6gag PTAP mutants were further quantitated by performing liquid culture β-galactosidase assays. Cultures were grown overnight in synthetic media (-Leu, -Trp, +glucose) in 96 well plates, normalized for optical density, and lysed by addition of 6× lysis/substrate solution in 6×Z-buffer (60 mM KCl, 6 mM MgSO4, 360 mM Na2HPO4, 240 mM NaH2PO4, 6 mg/ml CPRG, 0.12 U/ml lyticase, 0.075% NP-40). Cultures were incubated for 2 hr at 37° C., clarified by centrifugation, and the optical absorbance of each supernatant was measured (575 nm). Full length Tsg101 bound wild-type p6 in the two-hybrid liquid culture assay, resulting in high levels of β-galactosidase activity (>300-fold over background). […] Each of these point mutations also arrests HIV-1 budding at a late stage (Huang et al. 1995).

[4] = molecular target: T2, Tsg101 (Homo sapiens, UniProt Q99816); assay: Yeast two-hybrid filter lift assay for β-Gal activity (Tsg101 / p6gag interaction); assay type: binding; design: key to Interactions Between Tsg101 and p6gag (β-Gal activity): +: Positive β-Gal activity indicates that the p6gag wild type or mutant protein interacts with Tsg101; conditions: for ability to bind Tsg101 protein / Tsg101-p6gag interaction (in words): yeast two-hybrid
T2 construct: expressed in transfected cells
Description: Yeast two-hybrid assays were utilized to determine the effect of amino acid substitution mutations in the PTAP motif of HIV p6gag on the interaction between Tsg101 and p6gag. To prepare a yeast two-hybrid activation domain-Tsg101 construct, a DNA fragment encompassing the full-length coding sequence for Tsg101 according to GenBank Accession No. U82130 was obtained by PCR from a human fetal brain cDNA library and cloned into the EcoRI/Pst1 sites of the activation domain parent plasmid GADpN2 (LEU2, CEN4, ARS1, ADH1p-SV40NLS-GAL4 (768-881)-MCS (multiple cloning site)-PGK1t, AmpR, ColE1_ori).
To prepare the yeast two-hybrid DNA binding domain-HIV1 p6gag construct, a DNA fragment corresponding to the HIV1 p6 peptide derived from the HIV1.NL43 strain GAG protein was obtained by PCR from the NL43 containing plasmid R9Δapa and was cloned into the EcoRI/Sal1 sites of the binding domain parent plasmid pGBT.Q. The sequence of the amplified insert is shown in SEQ ID NO:3485. In addition, the amino acid sequence of the HIV-1NYU/BR5 GAG is provided in GenBank under Accession No. AF324493 and is listed in SEQ ID NO:3484.
The following amino acid substitution mutations were introduced by PCR into the HIV1 p6gag sequence in the yeast two-hybrid binding domain-HIV1 p6gag construct described above. The mutations were verified by DNA sequence analysis.
To test the effect of the mutations, yeast cells of the strain Y189 purchased from Clontech (ura3-52 his3*200 ade2-101 trp1-901 leu2-3,112 met gal4 gal80 URA3::GAL1p-lacZ) were co-transformed with the activation domain-Tsg101 construct and one of the binding domain-mutant p6gag constructs or the binding domain-wild type p6gag construct. Filter lift assays for β-Gal activity were conducted by lifting the transformed yeast colonies with filters, lysing the yeast cells by freezing and thawing, and contacting the lysed cells with X-Gal. […] All binding domain constructs were also tested for self-activation of β-Gal activity.

[5] = PBMC plates without virus, tetrazolium dye staining, read-out: TC50
[6] = fresh human PBMCs, seven days following infection, RT activity

Compound | Comments (anti-HIV activity) ([2]; fresh human PBMCs) | CC50 at 7 days [1, 5] [µM] | IC50 [2, 6] [µM] | β-galactosidase activity (in words) [3] | ability to bind Tsg101 protein / Tsg101-p6gag interaction (in words) [4] | also measured
Cc1cn([C@H]2C[C@H](N=[N+]=[N-])[C@@H](CO)O2)c(=O)[nH]c1=O [AZT, 3′-Azido-3′-deoxythymidine, reference compound] | Control; Highly | – | – | – | – | CC50 at 7 days [1]: > 1 µM; IC50 ([2]; Human immunodeficiency virus 1, PBMC, 168 h): 0.008 µM
C[C@H](NC(=O)[C@@H](NC(=O)[C@@H]1CCCN1C(=O)[C@H](CCC(=O)O)NC(=O)[C@@H]1CCCN1C(=O)[C@H](CCCNC(=N)N)NC(=O)[C@H](CCCNC(=N)N)NC(=O)[C@H](CCCNC(=N)N)NC(=O)[C@H](CCCNC(=N)N)NC(=O)[C@H](CCCNC(=N)N)NC(=O)[C@H](CCCNC(=N)N)NC(=O)[C@H](CCCNC(=N)N)NC(=O)[C@H](CCCNC(=N)N)NC(=O)[C@@H](N)CCCNC(=N)N)[C@@H](C)O)C(=O)N1CCC[C@H]1C(=O)N[C@@H](CCC(=O)O)C(=O)N[C@@H](CCC(=O)O)C(=O)O [MPI-PEP1, NH2-(R)9-PEPTAPEE-COOH] (H-RRRRRRRRRPEPTAPEE-OH) | Active | > 200 | 21.7 | – | – | –
CC(C)C[C@H](NC(=O)[C@H](C)NC(=O)[C@@H](NC(=O)[C@@H]1CCCN1C(=O)[C@H](CCC(=O)O)NC(=O)[C@@H]1CCCN1C(=O)[C@H](CCCNC(=N)N)NC(=O)[C@H](CCCNC(=N)N)NC(=O)[C@H](CCCNC(=N)N)NC(=O)[C@H](CCCNC(=N)N)NC(=O)[C@H](CCCNC(=N)N)NC(=O)[C@H](CCCNC(=N)N)NC(=O)[C@H](CCCNC(=N)N)NC(=O)[C@H](CCCNC(=N)N)NC(=O)[C@@H](N)CCCNC(=N)N)[C@@H](C)O)C(=O)N[C@@H](CCC(=O)O)C(=O)N[C@@H](CCC(=O)O)C(=O)O [MPI-PEP2, NH2-(R)9-PEPTALEE-COOH] (H-RRRRRRRRRPEPTALEE-OH) | Inactive | > 200 | > 200 | – | – | –
C[C@H](NC(=O)[C@@H](NC(=O)[C@@H]1CCCN1C(=O)[C@H](CCC(=O)O)NC(=O)[C@@H]1CCCN1C(=O)[C@@H](N)CCCNC(=N)N)[C@@H](C)O)C(=O)N1CCC[C@H]1C(N)=O [MPI-PEP3, NH2-RPEPTAP-CO-NH2] (H-RPEPTAP-NH2) | Inactive | > 200 | > 200 | – | – | –
p6(A9R) (LQSRPEPTRPPEESFRFGEETTTPSQKQEPIDKELYPLASLRSLFGSDPSSQ; not fully specified) | – | – | – | reduced β-galactosidase activity to background levels | abolishes the p6 binding affinity | –
p6(E6G) (LQSRPGPTAPPEESFRFGEETTTPSQKQEPIDKELYPLASLRSLFGSDPSSQ; not fully specified) | – | – | – | – | did not result in the elimination of the Tsg101-p6gag interaction | Interactions Between Tsg101 and p6gag (β-Gal activity) ([4]; yeast Y189 co-transformed with activation domain-Tsg101 and binding domain-p6gag construct, filter lift, X-Gal): +; ability to bind Tsg101 protein / Tsg101-p6gag interaction (in words) ([4]; listed as E6G): capable of binding
p6(P7L) (LQSRPELTAPPEESFRFGEETTTPSQKQEPIDKELYPLASLRSLFGSDPSSQ; not fully specified) | – | – | – | reduced β-galactosidase activity to background levels | abolishes the p6 binding affinity | –
p6(P10L) (LQSRPEPTALPEESFRFGEETTTPSQKQEPIDKELYPLASLRSLFGSDPSSQ; not fully specified) | – | – | – | reduced β-galactosidase activity to background levels | abolishes the p6 binding affinity | –
